Earlier results as cited in patent US20040126415A1, “Dermal delivery of a water-soluble selective cyclooxygenase-2 inhibitor” (priority 2002, published 2004).

Columns and labels:
COX-1 = COX-1 (Homo sapiens, UniProt P23219)
COX-2 = biological target: T1, COX-2 (Homo sapiens, UniProt P35354)
T1 sequence (P35354 18-604): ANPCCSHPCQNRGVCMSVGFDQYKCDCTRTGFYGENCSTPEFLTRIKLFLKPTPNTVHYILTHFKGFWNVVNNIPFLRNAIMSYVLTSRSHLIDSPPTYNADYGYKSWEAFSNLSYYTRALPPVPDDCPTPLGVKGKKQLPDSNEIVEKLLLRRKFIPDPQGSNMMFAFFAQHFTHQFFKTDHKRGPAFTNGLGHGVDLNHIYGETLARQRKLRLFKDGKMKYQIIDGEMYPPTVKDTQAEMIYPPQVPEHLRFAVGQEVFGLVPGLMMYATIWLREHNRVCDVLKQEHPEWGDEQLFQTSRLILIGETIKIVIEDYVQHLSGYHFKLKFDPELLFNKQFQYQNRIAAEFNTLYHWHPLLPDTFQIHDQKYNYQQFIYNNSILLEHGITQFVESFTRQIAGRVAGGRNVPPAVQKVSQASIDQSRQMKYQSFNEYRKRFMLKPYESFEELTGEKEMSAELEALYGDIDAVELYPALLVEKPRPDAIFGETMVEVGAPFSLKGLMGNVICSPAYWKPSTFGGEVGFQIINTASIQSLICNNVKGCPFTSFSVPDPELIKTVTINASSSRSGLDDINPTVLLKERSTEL

Sequence of COX-1 (P23219 24-599): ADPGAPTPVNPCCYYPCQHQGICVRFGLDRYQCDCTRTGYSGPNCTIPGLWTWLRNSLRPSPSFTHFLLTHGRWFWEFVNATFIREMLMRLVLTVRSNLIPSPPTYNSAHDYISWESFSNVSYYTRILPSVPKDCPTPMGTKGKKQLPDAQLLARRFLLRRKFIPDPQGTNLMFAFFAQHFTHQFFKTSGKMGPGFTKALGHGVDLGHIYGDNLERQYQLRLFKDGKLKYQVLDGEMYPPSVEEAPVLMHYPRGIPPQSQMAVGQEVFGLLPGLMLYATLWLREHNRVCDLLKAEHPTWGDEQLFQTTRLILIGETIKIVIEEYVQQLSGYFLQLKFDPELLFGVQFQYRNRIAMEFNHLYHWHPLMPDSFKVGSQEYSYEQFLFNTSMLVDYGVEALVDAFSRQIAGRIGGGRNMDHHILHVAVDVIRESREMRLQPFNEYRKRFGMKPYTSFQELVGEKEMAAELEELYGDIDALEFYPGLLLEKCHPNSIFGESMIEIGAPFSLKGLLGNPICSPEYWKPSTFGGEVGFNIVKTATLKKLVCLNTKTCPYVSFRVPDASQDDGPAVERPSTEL

| Structure (SMILES) | in vitro inhibitory activity against COX-1 (COX-1) | in vitro inhibitory activity against COX-2 (COX-2) |
| --- | --- | --- |
| Cc1onc(-c2ccccc2)c1-c1ccc(S(N)(=O)=O)cc1 [valdecoxib, 4-[5-methyl-3-phenylisoxazol-4-yl]benzenesulfonamide] | weak inhibitor | – |
| CCC(=O)NS(=O)(=O)c1ccc(-c2c(-c3ccccc3)noc2C)cc1 [Parecoxib, N-[[4-(5-methyl-3-phenylisoxazol-4-yl)phenyl]sulfonyl]propanamide] | weak in vitro inhibitory activity | weak in vitro inhibitory activity |
